These results are taken from patent US20080262049A1, “Therapeutic Agent for Hematopoietic Tumor” (KYOWA HAKKO KOGYO CO., LTD., priority 2005, published 2008).

The test system of data set [1] is human multiple myeloma NCI-H929 cells. Description: Cell growth inhibition test against hematopoietic tumor cell lines (XTT), NCI-H929. The data set is classed as cell-based. The note with it: 72 hours culture with compound, read-out: growth inhibitory activity, GI50 value. From the text: (§1) As hematopoietic tumor cell lines, human acute lymphoblastic leukemia RS4;11 cells (ATCC No. CRL-1873), human chronic myeloid leukemia K-562 cells (ATCC No. CCL-243), and human multiple myeloma NCI-H929 cells (ATCC No. CRL-9068) were used. For the culture of the cells, RPMI 1640 Medium (Invitrogen, catalog No. 11875-093) containing 10% fetal bovine serum (Invitrogen, catalog No. 10099-141), 10 mmol/L 4-(2-hydroxyethyl)-1-piperazinethanesulfonic acid (HEPES) buffer (ICN Biomedicals, catalog No. 1688449), 1 mmol/L sodium pyruvate (Invitrogen, catalog No. 11360-070), 4.5 g/L glucose (Sigma-Aldrich, catalog No. G8769), 100 units/mL penicillin (Invitrogen, catalog No. 15140-122) and 100 μg/mL streptomycin (Invitrogen, catalog No. 15140-122) was used. The cells were cultured at 37° C. in a 5% carbon dioxide atmosphere.
(§2) RS4;11 cells (20000 cells/well), K-562 cells (1000 cells/well), or NCI-H929 cells (15000 cells/well) were seeded in each well of 96-well plates (Nunc, catalog No. 167008), and cultured overnight. Test compounds diluted stepwise were added, and the cells were further cultured for 72 hours (final volume: 100 μL/well). Fifty μL XTT labeling mixture of Cell Proliferation Kit II (XTT) (Roche Diagnostics, catalog No. 1465015) was added to each well, and the plates were incubated at 37° C. After 4 hours, absorbance at 490 nm (reference wavelength: 655 nm) was measured with a plate reader (Molecular Device, SpectraMax 340PC^384). Growth ratios of the cells in the wells treated with the test compound was calculated based on the growth ratio of the cells in the control well treated with solvent (dimethyl sulfoxide (DMSO)) for 72 hours, which was defined as 100%.

Data set [2] has as its system human acute lymphoblastic leukemia RS4;11 cells. Description: Cell growth inhibition test against hematopoietic tumor cell lines (XTT), RS4;11. The data set is classed as cell-based. The note with it: 72 hours culture with compound, read-out: growth inhibitory activity, GI50 value.
From the text: as §1, §2
(In general: Tetrazolium dyes change colour on reduction, which living cells bring about.)

Data set [3] deals with human non-Hodgkin's lymphoma SR cells. Description: Cell growth inhibition test on non-Hodgkin's lymphoma cells (XTT), SR. Type of data set: cell-based. The note with it: same manner as Test Example 1, read-out: growth inhibitory activity, GI50 value. The procedure: as §2
(§3) As cancer cell lines, human acute myeloid leukemia MV-4-11 cells (ATCC No. CRL-9591) and human non-Hodgkin's lymphoma SR cells (ATCC No. CRL-2262) were used. The cells were cultured at 37° C. in a 5% carbon dioxide atmosphere by using the mediums mentioned below, respectively.
(§4) In the same manner as that of Test Example 1, the cells were seeded (8000 to 16000 cells/well, respectively) in each well of 96-well plates (Nunc, catalog No. 167008), and growth ratios of the cells treated with test compounds were calculated. Measurement of absorbance was performed at 3 to 4 hours after the addition of the XTT labeling mixture.

For data set [4], the target named is T1, recombinant human Eg5 motor domain protein (Homo sapiens, UniProt P52732).
T1 construct: A plasmid expressing the motor domain of human Eg5 was constructed; made in house; host or cells: Escherichia coli BL21 (DE3)
T1 sequence (P52732 18-359 limits assumed): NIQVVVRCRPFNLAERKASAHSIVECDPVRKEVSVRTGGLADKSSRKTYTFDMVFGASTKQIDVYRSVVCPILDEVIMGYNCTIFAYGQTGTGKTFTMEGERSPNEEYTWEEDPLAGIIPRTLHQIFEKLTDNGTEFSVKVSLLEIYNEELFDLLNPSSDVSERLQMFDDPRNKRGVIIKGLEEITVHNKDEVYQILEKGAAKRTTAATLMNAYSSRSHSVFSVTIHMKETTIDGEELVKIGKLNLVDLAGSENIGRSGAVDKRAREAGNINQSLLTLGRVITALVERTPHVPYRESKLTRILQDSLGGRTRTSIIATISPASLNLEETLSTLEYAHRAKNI
As to the kind of experiment: Eg5 enzyme inhibition test (ATPase activity). The note with it: for inhibition of the ATPase activity of Eg5 (in words): 30° C., 30 minutes, absorbance at 360 nm; for Eg5 inhibitory activity compared with the corresponding racemic mixture (in words): versus Compounds 3, 4, 6, 7, 20, 14, 9, 8, the respectively corresponding racemic mixtures. Type of data set: biochemical. The procedure:
A recombinant human Eg5 motor domain protein was prepared by referring to the literature [Biochemistry, Vol. 35, p. […] A plasmid expressing the motor domain of human Eg5 was constructed, and transformed into Eseherichia coli BL21 (DE3). The transformant was cultured at 25° C., and when the OD600 reached 0.74, isopropyl-β-D-thiogalactoside was added at a final concentration of 0.5 mmol/L. The transformant was further cultured for 4 hours, and then the culture medium was centrifuged to collect the cells. The cells were suspended in a buffer and ultrasonicated, and then the sonicated solution was centrifuged to recover the supernatant. The supernatant was purified by cation exchange column chromatography to obtain a partially purified sample. Furthermore, the partially purified sample was purified by gel filtration column chromatography to obtain a finally purified sample.
Measurement of the ATPase activity of Eg5 was carried out by referring to the literatures [EMBO Journal, Vol. 13, p. […] Solution A was dispensed into each well of a 96-well plate as 45 μL portions. Solution B was used to serially dilute a test compound. The diluted test compound solutions in a volume of 30 μL were mixed with Solution A added beforehand in each well of the 96-well plate to start the enzymatic reaction. The enzymatic reaction was performed at 30° C. for 30 minutes. […] The relative activity was calculated to calculate IC50 value.

The subject of data set [5] is human acute myeloid leukemia MV-4-11 cells. Description: Cell growth inhibition test on acute myeloid leukemia cells (XTT), MV-4-11. The data set is classed as cell-based. The note with it: MV4-11, same manner as Test Example 1, read-out: growth inhibitory activity, GI50 value. As for the experimental part:
as §2, §3, §4

In data set [6] the test system is human chronic myeloid leukemia K-562 cells. Description: Cell growth inhibition test against hematopoietic tumor cell lines (XTT), K-562. Type of data set: cell-based. The settings on record: K562, 72 hours culture with compound, read-out: growth inhibitory activity, GI50 value.
From the text: as §1, §2

Broadly, the melting point is the temperature of the solid-liquid transition. Regarding `CC(C)(C)C(=O)N1N=C(N2CCCC2=O)SC1(CCNS(C)(=O)=O)c1ccccc1` (single isomer, unassigned; (-)) [Compound c, (−)-N-{2-[3-(2,2-Dimethylpropionyl)-5-(2-oxopyrrolidin-1-yl)-2-phenyl-2,3-dihydro-1,3,4-thiadiazol-2-yl]ethyl}methanesulfonamide], the melting point lay within 107 to 110 °C.

Broadly, the GI50 is the concentration giving 50% growth inhibition. `CCC(=O)N1N=C(N2CCCC2=O)SC1(CCNS(C)(=O)=O)c1ccccc1` (single isomer, unassigned; (-)) [Compound e, (−)-N-{2-[5-(2-Oxopyrrolidin-1-yl)-2-phenyl-3-propionyl-2,3-dihydro-1,3,4-thiadiazol-2-yl]ethyl}methanesulfonamide]: the melting point was in the range of 188 to 191 °C. Besides, the GI50 in data set [1] is below 10 µM. In addition, in data set [2], the GI50 was below 10 µM. For the same compound, the GI50 in data set [3] was below 10 µM. For the same compound, in data set [4], the “inhibition of the ATPase activity of Eg5 (in words)” value is “inhibited the ATPase activity of Eg5 in a concentration-dependent manner” and the “Eg5 inhibitory activity compared with the corresponding racemic mixture (in words)” value is reported as “stronger inhibitory activities”. Further, the 50% growth inhibitory concentration (GI50) in data set [5] was below 10 µM. For the same compound, in data set [6], the GI50 is below 10 µM.

`CC(=O)N1N=C(NC(=O)C(C)(C)C)SC1(CCNS(C)(=O)=O)c1ccccc1` (single isomer, unassigned; (-)) [Compound f, (−)-N-[4-Acetyl-5-(2-methanesulfonylaminoethyl)-5-phenyl-4,5-dihydro-1,3,4-thiadiazol-2-yl]-2,2-dimethylpropanamide] came in with a melting point of 187 to 190 °C.

In turn, `CC(=O)N1N=C(N2CCCCC2=O)SC1(CCNS(C)(=O)=O)c1ccccc1` (single isomer, unassigned; (-)) [Compound h, (−)-N-{2-[3-Acetyl-5-(2-oxopiperidino)-2-phenyl-2,3-dihydro-1,3,4-thiadiazol-2-yl]ethyl}methanesulfonamide] gave a melting point of 169 to 171 °C. In data set [1], the GI50 is below 10 µM. The GI50 in data set [2] was below 10 µM. Also, in data set [3], the GI50 was below 10 µM. Further, in data set [4], the “inhibition of the ATPase activity of Eg5 (in words)” value is listed as “inhibited the ATPase activity of Eg5 in a concentration-dependent manner” and the “Eg5 inhibitory activity compared with the corresponding racemic mixture (in words)” value is given as “stronger inhibitory activities”. Further, in data set [5], the GI50 is below 10 µM. Besides, in data set [6], the GI50 is below 10 µM.

`CN(C)CCS(=O)(=O)NCC1(c2ccccc2)SC(NC(=O)C(C)(C)C)=NN1C(=O)C(C)(C)C` (single isomer, unassigned; (-)) [Compound m, (−)-N-[5-(2-Dimethylaminoethanesulfonylaminomethyl)-4-(2,2-dimethylpropionyl)-5-phenyl-4,5-dihydro-1,3,4-thiadiazol-2-yl]-2,2-dimethylpropanamide] registered a melting point of 101 to 104 °C. Besides, in data set [1], the GI50 was below 10 µM. For the same compound, the GI50 in data set [2] is below 10 µM. Besides, in data set [3], the GI50 is below 10 µM. Moreover, the GI50 in data set [5] was below 10 µM. In addition, in data set [6], the GI50 was below 10 µM.

Turning to `CN(C)CCCS(=O)(=O)NCC1(c2ccccc2)SC(NC(=O)C(C)(C)C)=NN1C(=O)C(C)(C)C` (single isomer, unassigned; (-)) [Compound n, (−)-N-[5-(3-Dimethylaminopropanesulfonylaminomethyl)-4-(2,2-dimethylpropionyl)-5-phenyl-4,5-dihydro-1,3,4-thiadiazol-2-yl]-2,2-dimethylpropanamide], the melting point was 92 to 95 °C. Moreover, the GI50 in data set [1] was below 10 µM. Further, the GI50 in data set [2] is below 10 µM. Moreover, the GI50 in data set [3] is below 10 µM. Moreover, the concentration for 50% growth inhibition (GI50) in data set [5] is below 10 µM. The GI50 in data set [6] is below 10 µM.

Consider `CC(=O)N1N=C(N2CCCC2=O)SC1(CCNS(C)(=O)=O)c1ccccc1` (stereo not shown) [Compound g, N-{2-[3-Acetyl-5-(2-oxopyrrolidin-1-yl)-2-phenyl-2,3-dihydro-1,3,4-thiadiazol-2-yl]ethyl}methanesulfonamide], for which the melting point is 137 to 140 °C.
